Laboratory results reported in patent US7989449B2, “4,5-dihydro-oxazol-2-yl amine derivatives” (Hoffman-La Roche Inc., priority 2008, dated 2011).
Structures can show the parent of a compound that is named as a salt.

Target: T1, 6his-tagged full length BACE 1 from SF9 cells (Homo sapiens, UniProt P56817)
T1 construct: 6his-tagged full length BACE 1 from SF9 cells; made in house; host or cells: Sf9 insect cells
Assay: BACE1 MR121 protease assay
Assay type: biochemical
Conditions: 30 nM 6his-BACE-1, 300 nM substrate peptide WSEVNLDAEFRC-MR121, Na-acetate pH 4.0, fluorescence
Method: Assay plate: 384 well microtiter plate, Corning clear, flat bottom, non binding surface
Assaybuffer: 100 mM Na-acetate pH 4.0, 20 mM EDTA, 0.05% BSA
BACE-1: 6his-tagged full length BACE 1 from SF9 cells
Substrate peptide: WSEVNLDAEFRC-MR121
BACE1 MR121 protease assay
39 μl of a 38 nM 6his-BACE-1 solution in assay buffer (final conc. in the assay: 30 nM) were pipetted into the assay plate. 1 μl of a concentration of a potential inhibitor in dimethylsulfoxide was added to the enzyme and incubated for 10 min. Finally, 10 μl of a 1.5 μM solution of the substrate in assay buffer (final conc. in the assay: 300 nM) was added to start the enzymatic reaction. After strong mixing for 2 min the enzymatic reaction was followed by measuring the fluorescence intensity every two minutes for 15 min on a suitable fluorescence reader. […] The slope was calculated from the linear part of the kinetic as a measure of the activity of BACE-1. A range of concentrations of the potential inhibitor was used to generate data for calculating the concentration of inhibitor resulting in 50% of the effect (e.g. IC50, the concentration of the compound inhibiting the BACE-1 activity by 50%).

T1 sequence (P56817 46-501): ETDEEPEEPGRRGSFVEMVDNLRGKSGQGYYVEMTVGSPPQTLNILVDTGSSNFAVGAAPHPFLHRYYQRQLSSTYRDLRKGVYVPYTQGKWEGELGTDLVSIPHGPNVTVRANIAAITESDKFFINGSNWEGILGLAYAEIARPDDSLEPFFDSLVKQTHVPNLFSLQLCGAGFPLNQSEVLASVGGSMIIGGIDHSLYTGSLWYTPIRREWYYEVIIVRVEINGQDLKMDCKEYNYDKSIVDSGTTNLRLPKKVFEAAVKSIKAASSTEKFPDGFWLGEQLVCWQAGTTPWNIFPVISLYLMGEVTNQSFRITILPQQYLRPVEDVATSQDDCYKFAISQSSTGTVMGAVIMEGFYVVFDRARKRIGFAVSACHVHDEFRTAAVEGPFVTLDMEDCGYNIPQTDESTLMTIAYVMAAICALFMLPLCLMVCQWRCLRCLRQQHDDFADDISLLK

| IC50 | Structure (SMILES) |
| --- | --- |
| 80 nM | CCOCc1cc(Nc2ccccc2)cc(C2(c3ccc(OC(F)F)c(C)c3)COC(N)=N2)c1 (racemic) [Example 193, (RS)-4-(4-Difluoromethoxy-3-methyl-phenyl)-4-(3-ethoxymethyl-5-phenylamino-phenyl)-4,5-dihydro-oxazol-2-ylamine] |
| 740 nM | CCOc1ccc(C2(c3cccc(-c4cccc(Cl)c4)c3)COC(N)=N2)cc1C (racemic) [Example 66, (RS)-4-(3′-Chloro-biphenyl-3-yl)-4-(4-ethoxy-3-methyl-phenyl)-4,5-dihydro-oxazol-2-ylamine formate] |
| 840 nM | COc1ccc(C2(c3cccc(-c4cncnc4)c3)COC(N)=N2)cc1Cl (racemic) [Example 73, (RS)-4-(3-Chloro-4-methoxy-phenyl)-4-(3-pyrimidin-5-yl-phenyl)-4,5-dihydro-oxazol-2-ylamine] |
| 120 nM | COc1cncc(-c2cc(C3(c4ccc(OC)c(C)c4)COC(N)=N3)ccc2F)c1 (racemic) [Example 51, (RS)-4-[4-Fluoro-3-(5-methoxy-pyridin-3-yl)-phenyl]-4-(4-methoxy-3-methyl-phenyl)-4,5-dihydro-oxazol-2-ylamine formate] |
| 750 nM | COc1cncc(-c2cccc(C3(c4ccc(OC)c(F)c4)COC(N)=N3)c2)c1 (racemic) [Example 92, (RS)-4-(3-Fluoro-4-methoxy-phenyl)-4-[3-(5-methoxy-pyridin-3-yl)-phenyl]-4,5-dihydro-oxazol-2-ylamine formate] |
| 730 nM | COc1ccc(C2(c3ccc(F)c(-c4cc(C)cnc4F)c3)COC(N)=N2)cc1Cl (racemic) [Example 113, (RS)-4-(3-Chloro-4-methoxy-phenyl)-4-[4-fluoro-3-(2-fluoro-5-methyl-pyridin-3-yl)-phenyl]-4,5-dihydro-oxazol-2-ylamine] |
| 240 nM | NC1=NC(c2cccc(-c3cncc(Cl)c3)c2)(c2ccc(OC(F)F)c(F)c2)CO1 (racemic) [Example 115, (RS)-4-[3-(5-Chloro-pyridin-3-yl)-phenyl]-4-(4-difluoromethoxy-3-fluoro-phenyl)-4,5-dihydro-oxazol-2-ylamine formate] |
| 160 nM | Cc1cc(C2(c3cccc(-c4cnccn4)c3)COC(N)=N2)ccc1OC(F)F (racemic) [Example 204, (RS)-4-(4-Difluoromethoxy-3-methyl-phenyl)-4-(3-pyrazin-2-yl-phenyl)-4,5-dihydro-oxazol-2-ylamine formate] |
| 120 nM | Cc1cc(C2(c3cccc(-c4cncnc4)c3)COC(N)=N2)ccc1OC(F)F (racemic) [Example 100, (RS)-4-(4-Difluoromethoxy-3-methyl-phenyl)-4-(3-pyrimidin-5-yl-phenyl)-4,5-dihydro-oxazol-2-ylamine formate] |
| 945 nM | COc1ccc(C2(c3ccc(F)c(-c4ccc(F)nc4)c3)COC(N)=N2)cc1C (racemic) [Example 25, (RS)-4-[4-Fluoro-3-(6-fluoro-pyridin-3-yl)-phenyl]-4-(4-methoxy-3-methyl-phenyl)-4,5-dihydro-oxazol-2-ylamine formate] |
| 810 nM | COc1ccc(C2(c3cccc(-c4cccc(Cl)c4)c3)COC(N)=N2)cc1 (racemic) [Example 14, (RS)-4-(3′-Chloro-biphenyl-3-yl)-4-(4-methoxy-phenyl)-4,5-dihydro-oxazol-2-ylamine formate] |
| 130 nM | Cc1cnc(F)c(-c2cccc(C3(c4ccc(OC(F)F)c(C)c4)COC(N)=N3)c2)c1 (racemic) [Example 104, (RS)-4-(4-Difluoromethoxy-3-methyl-phenyl)-4-[3-(2-fluoro-5-methyl-pyridin-3-yl)-phenyl]-4,5-dihydro-oxazol-2-ylamine formate] |
| 210 nM | Cc1cc(C2(c3cccc(-c4cncc(F)c4)c3)COC(N)=N2)ccc1OC(F)F (racemic) [Example 102, (RS)-4-(4-Difluoromethoxy-3-methyl-phenyl)-4-[3-(5-fluoro-pyridin-3-yl)-phenyl]-4,5-dihydro-oxazol-2-ylamine formate] |
| 60 nM | Cc1cc(C2(c3cccc(-c4cncc(Cl)c4)c3)COC(N)=N2)ccc1OC(F)F (racemic) [Example 94, (RS)-4-[3-(5-Chloro-pyridin-3-yl)-phenyl]-4-(4-difluoromethoxy-3-methyl-phenyl)-4,5-dihydro-oxazol-2-ylamine formate] |
| 350 nM | NC1=NC(c2ccc(OC(F)F)cc2)(c2cccc(-c3cccnc3F)c2)CO1 (racemic) [Example 89, (RS)-4-(4-Difluoromethoxy-phenyl)-4-[3-(2-fluoro-pyridin-3-yl)-phenyl]-4,5-dihydro-oxazol-2-ylamine formate] |
| 90 nM | Cc1cc(C2(c3ccc(F)c(-c4cncc(Cl)c4)c3)COC(N)=N2)ccc1OC(F)F (racemic) [Example 205, (RS)-4-[3-(5-Chloro-pyridin-3-yl)-4-fluoro-phenyl]-4-(4-difluoromethoxy-3-methyl-phenyl)-4,5-dihydro-oxazol-2-ylamine formate] |

| IC50 | Structure (SMILES) |
| --- | --- |
| 320 nM | Cc1cncc(-c2cccc(C3(c4ccc(OC(F)F)c(C)c4)COC(N)=N3)c2)c1 (racemic) [Example 103, (RS)-4-(4-Difluoromethoxy-3-methyl-phenyl)-4-[3-(5-methyl-pyridin-3-yl)-phenyl]-4,5-dihydro-oxazol-2-ylamine formate] |
| 680 nM | COc1cccc(-c2cccc(C3(c4ccc(OC)c(C)c4)COC(N)=N3)c2)c1 (racemic) [Example 43, (RS)-4-(3′-Methoxy-biphenyl-3-yl)-4-(4-methoxy-3-methyl-phenyl)-4,5-dihydro-oxazol-2-ylamine format] |
| 200 nM | COc1cncc(-c2cccc(C3(c4ccc(OC(F)F)cc4C)COC(N)=N3)c2)c1 (racemic) [Example 146, (RS)-4-(4-Difluoromethoxy-2-methyl-phenyl)-4-[3-(5-methoxy-pyridin-3-yl)-phenyl]-4,5-dihydro-oxazol-2-ylamine formate] |
| 770 nM | COc1ccc(C2(c3ccc(F)c(-c4cccnc4)c3)COC(N)=N2)cc1Cl (racemic) [Example 109, (RS)-4-(3-Chloro-4-methoxy-phenyl)-4-(4-fluoro-3-pyridin-3-yl-phenyl)-4,5-dihydro-oxazol-2-ylamine formate] |
| 290 nM | COc1ccc(C2(c3ccc(F)c(-c4cccnc4)c3)COC(N)=N2)cc1C (racemic) [Example 24, (RS)-4-(4-Fluoro-3-pyridin-3-yl-phenyl)-4-(4-methoxy-3-methyl-phenyl)-4,5-dihydro-oxazol-2-ylamine] |
| 90 nM | Cc1cc(C2(c3ccc(F)c(-c4cncnc4)c3)COC(N)=N2)ccc1OC(F)F (racemic) [Example 120, (RS)-4-(4-Difluoromethoxy-3-methyl-phenyl)-4-(4-fluoro-3-pyrimidin-5-yl-phenyl)-4,5-dihydro-oxazol-2-ylamine formate] |
| 890 nM | CCOc1ccc(C2(c3cccc(-c4cncnc4)c3)COC(N)=N2)cc1C (racemic) [Example 67, (RS)-4-(4-Ethoxy-3-methyl-phenyl)-4-(3-pyrimidin-5-yl-phenyl)-4,5-dihydro-oxazol-2-ylamine formate] |
| 200 nM | NC1=NC(c2cccc(-c3cncnc3)c2)(c2ccc(OC(F)F)c(Cl)c2)CO1 (racemic) [Example 118, (RS)-4-(3-Chloro-4-difluoromethoxy-phenyl)-4-(3-pyrimidin-5-yl-phenyl)-4,5-dihydro-oxazol-2-ylamine formate] |
| 460 nM | Cc1cnc(F)c(-c2cccc(C3(c4ccc(OC(F)F)cc4C)COC(N)=N3)c2)c1 (racemic) [Example 131, (RS)-4-(4-Difluoromethoxy-2-methyl-phenyl)-4-[3-(2-fluoro-5-methyl-pyridin-3-yl)-phenyl]-4,5-dihydro-oxazol-2-ylamine formate] |
| 740 nM | COc1ccc(C2(c3cccc(-c4cccnc4F)c3)COC(N)=N2)cc1Cl (racemic) [Example 72, (RS)-4-(3-Chloro-4-methoxy-phenyl)-4-[3-(2-fluoro-pyridin-3-yl)-phenyl]-4,5-dihydro-oxazol-2-ylamine] |
| 40 nM | Cc1cc([C@]2(c3cccc(-c4cncc(Cl)c4)c3)COC(N)=N2)ccc1OC(F)F [Example 94A, (R)-4-[3-(5-Chloro-pyridin-3-yl)-phenyl]-4-(4-difluoromethoxy-3-methyl-phenyl)-4,5-dihydro-oxazol-2-ylamine] |
| 440 nM | CCOc1ccc(C2(c3cccc(-c4cncc(F)c4)c3)COC(N)=N2)cc1C (racemic) [Example 75, (RS)-4-(4-Ethoxy-3-methyl-phenyl)-4-[3-(5-fluoro-pyridin-3-yl)-phenyl]-4,5-dihydro-oxazol-2-ylamine formate] |
| 330 nM | COc1cncc(-c2cccc(C3(c4ccc(OC)c(C(F)(F)F)c4)COC(N)=N3)c2)c1 (racemic) [Example 150, formate] |
| 720 nM | Cc1cc(OC(F)F)ccc1C1(c2cccc(-c3cncc(F)c3)c2)COC(N)=N1 (racemic) [Example 145, (RS)-4-(4-Difluoromethoxy-2-methyl-phenyl)-4-[3-(5-fluoro-pyridin-3-yl)-phenyl]-4,5-dihydro-oxazol-2-ylamine formate] |
| 660 nM | CCOc1cc(Nc2ccccc2)cc(C2(c3ccc(OC(F)F)c(C)c3)COC(N)=N2)c1 (racemic) [Example 192] |
